Reference: patent publication US5242942A, “Anticonvulsant fructopyranose cyclic sulfites and sulfates” (McNeilab, Inc., priority 1992, dated 1993)

How the values were obtained:
carbonic anhydrase = carbonic anhydrase inhibition, 18O-exchange mass spectrometry, disrupted hepatocytes; assay type: biochemical; conditions: 250 μM, disrupted male rat hepatocytes, 37° C., pH 7.4, 25 mM aqueous NaHCO3
Description: Compounds of formula (I) are also inhibitors of carbonic anhydrase, and as such, are useful in the treatment of glaucoma. Such activity may be determined by mass spectrometry using the ^18 O-exchange technique described by Dodgson and Forster in J. Appl. Physiol. 1983, 55, 1293. Specifically, this assay was conducted by first killing the male rats and then removing their livers. Their livers were placed in a cold physiological saline solution. The liver tissue was then minced with scissors and shaken in a protolytic enzyme solution to promote disassociation of the hepatocytes. The dissociated hepatocytes were then washed in a cold saline solution and used for determination of carbonic anhydrase activity.
[…] The continuous readout of the mass 44 peak gives a continuous record of the constancy of the pH of the reaction medium since the height of the mass 44 peak is very sensitive to pH. The pH of the medium was read from the pH meter and used to calibrate the mass 44 peaks at regular intervals.
An 8 mL glass chamber, with openings for a pH electrode and sample insertion, was used for continuous mass spectrophotometric measurement of C^16 O^16 O (mass 44) and C^16 O^18 O (mass 46) dissolved in aqueous bicarbonate buffer. […] The pH was constantly monitored by a combination glass pH electrode (Radiometer model gK 2641C). […]

rat diuresis study = assay type: in vivo, rat (male Wistar); conditions: 6.3 mg/kg PO, average of five animals
Description: Evidence for the inhibition of carbonic anhydrase by compounds of the formula (I) can also be obtained by a diuresis study, such as described by A. Weiner in Goodman and Gilman's The Pharmacological Basis of Therapeutics, 8th ed.; Goodman Gilman, A.; Rall, T. W.; Nies, A. S.; Taylor, P., Eds.; Pergamon Press: New York, 1990; pp 716-718. An increase in urine akalinity accompanied with an increase in water intake and urine output provides an indirect indication of carbonic anhydrase inhibition activity. Male Wistar rats having a weight of 250-300 g were dosed orally (PO) and housed in cages that allowed for the quantitative measure of fluid intake and urine output. Water intake and urine output were measured at 24 hours versus control, whereas urine pH, obtained via pH meter, was measured at 4 and 24 hours versus control. The results of this study, which are the average of five animals, are reported below in Table III. […] Such data is also an indication of the usefulness of the compounds of formula (I) as diuretics in the treatment of hypertension, congestive heart failure and other types of edema. The determination of suitable dosages for such compounds for the treatment of hypertension and congestive heart failure and other types of edema is within the skill of the art.

Compound: CC1(C)O[C@H]2[C@@H]3OS(=O)(=O)O[C@@H]3CO[C@@]2(COS(N)(=O)=O)O1 [Example 1, 2,3-O-(1-Methylethylidene)-4,5-O-sulfonyl-β-D-fructopyranose Sulfamate]
- inhibition of all hepatocyte carbonic anhydrase (carbonic anhydrase): Maximal inhibition
- Urine pH (rat diuresis study; 4 hours, control 6.98): 8.99
- Urine pH (rat diuresis study; 24 hours, control 6.43): 7.03
- Water Intake (rat diuresis study; 24 hours, control 15.0): 24.0 mL
- Urine Output (rat diuresis study; 24 hours, control 17.6): 28.3 mL
